Test results from patent publication US20030225081A1, “Pyridazinones and triazinones and medicinal use thereof” (priority 2000, published 2003).

Tested on: AMPA receptor
Test: Suppressing action to calcium influx into nerve cells induced by AMPA
Assay type: cell-based
Settings: Fura2-AM, stimulation with 2 μM AMPA, primary culture of rat embryo cerebral cortex nerve cells, 1 μM MK-801
Excerpt: Suppressing Action to Calcium Influx into Nerve Cells Induced by AMPA
The suppressing action of the compounds of the present invention to calcium influx into nerve cells induced by AMPA was investigated using the primary culture system of nerve cells of cerebral cortex of embryo of rat.
Cerebral cortex was cut out from the brain of rat of gestational 18 days and treated with trypsin and DNase to disperse the cells. The cells were flown by MEM containing 10% of serum, sown in a culture bottle and astrocytes were proliferated. The astrocytes were re-dispersed by trypsin and sown in a 96-well plate. After incubation for one week, it was confirmed that the astrocytes covered all over the bottom and then the nerve cells of cerebral cortex which was dispersed by the above method were sown thereupon. After incubation for 24 hours, the medium was changed, the incubation was carried out for one week and, after that, the medium was changed to that containing 1 μM of MK-801. Nerve cells which were incubated for not shorter than 8 to 10 days were used.
Calcium influx into the cells was measured using Fura2-AM which was a calcium-sensitive fluorescent dye. It was treated in a medium containing Fura2-AM for 1 hour, incorporated into the cells, exchanged to a Tyrode solution containing 1 μM MK-801 and stimulation was carried out using 2 μM AMPA. Change in the amount of calcium flown into the cells were measured as the change in the fluorescent intensity at the exciting wave length of 340/380 nm. […] As the control compound, GYKI52466 (Le Peillet, et al., Brain Res., 571, 115, 1992) was used.

Structure (SMILES)	IC50
O=C1N(c2cccnc2)CC(c2ccccn2)=NN1c1ccccc1Br [Example 110, 2-(2-Bromophenyl)-6-(2-pyridyl)-4-(3-pyridyl)-4,5-dihydro-1,2,4-triazin-3 (2H)-one]	100 nM
O=C1C(c2ccccc2O)CC(c2ccccn2)=NN1c1ccccc1 (stereo not drawn) [Example 33, 4-(2-Hydroxyphenyl)-2-phenyl-6-(2-pyridyl)-4,5-dihydro-3 (2H)-pyridazinone]	70 nM
COc1ccc(C2CC(c3ccccn3)=NN(c3ccccc3Br)C2=O)cc1 (stereo not drawn) [Example 15, 2-(2-Bromophenyl)-4-(4-methoxyphenyl)-6-(2-pyridyl)-4,5-dihydro-3 (2H)-pyridazinone]	200 nM
N#Cc1ccc(-n2nc(-c3ccccn3)cc(-c3ccccc3)c2=O)cn1 [Example 80A, 2-(2-Cyanopyridin-5-yl)-4-phenyl-6-(2-pyridyl)-3 (2H)-pyridazinone]	7100 nM
O=c1c(-c2ccccc2)cc(-c2ccccn2)nn1-c1ccccc1Br [Example 56, 2-(2-Bromophenyl)-4-phenyl-6-(2-pyridyl)-3 (2H)-pyridazinone]	200 nM
COc1ccc(Br)cc1C1CC(c2ccccn2)=NN(c2ccccc2Br)C1=O (stereo not drawn) [Example 16, 2-(2-Bromophenyl)-4-(3-bromo-6-methoxyphenyl)-6-(2-pyridyl)-4,5-dihydro-3 (2H)-pyridazinone]	700 nM
N#Cc1ccccc1N1N=C(c2ccccn2)CC(c2ccccc2O)C1=O (stereo not drawn) [Example 41, 2-(2-Cyanophenyl)-4-(2-hydroxyphenyl)-6-(2-pyridyl)-4,5-dihydro-3 (2H)-pyridazinone]	30 nM
O=C1N(c2cc(O)ccc2O)CC(c2ccccc2O)=NN1c1ccccc1Br [Example 94, 2-(2-Bromophenyl)-4-(2,5-dihydroxyphenyl)-6-(2-hydroxyphenyl)-4,5-dihydro-1,2,4-triazin-3 (2H)-one]	900 nM
COc1ccccc1N1N=C(c2ccccn2)CC(c2ccccc2)C1=O (stereo not drawn) [Example 26, 2-(2-Methoxyphenyl)-4-phenyl-6-(2-pyridyl)-4,5-dihydro-3 (2H)-pyridazinone]	300 nM
O=c1c(-c2ccccc2)cc(-c2ccccn2)nn1-c1ccc[n+]([O-])c1 [Example 79, 2-(3-Pyridin-1-oxide)-4-phenyl-6-(2-pyridyl)-3 (2H)-pyridazinone]	7200 nM
O=C1C(c2cccnc2)C2COc3ccccc3C2=NN1c1ccccc1I (stereo not drawn) [Example 8, 2-(2-Iodophenyl)-4-(3-pyridyl)-2,3,4,4a-tetrahydro-5H-(1)benzopyrano[4,3-c]pyridazin-3-one]	100 nM
COc1ccccc1C1CC(c2ccccn2)=NN(c2ccccc2Br)C1=O (stereo not drawn) [Example 14, 2-(2-Bromophenyl)-4-(2-methoxyphenyl)-6-(2-pyridyl)-4,5-dihydro-3 (2H)-pyridazinone]	200 nM
N#Cc1ccccc1-c1cc(-c2ccccn2)nn(-c2ccccc2C#N)c1=O [Example 46, 2-(2-Cyanophenyl)-4-(2-cyanophenyl)-6-(2-pyridyl)-3 (2H)-pyridazinone]	300 nM
N#Cc1ccccc1-n1nc(-c2ccccn2)cc(-c2ccccc2)c1=O [Example 43, 2-(2-Cyanophenyl)-4-phenyl-6-(2-pyridyl)-3 (2H)-pyridazinone]	100 nM
COc1cccc(C2CC(c3ccccn3)=NN(c3ccccc3Br)C2=O)c1 (stereo not drawn) [Example 1, 2-(2-Bromophenyl)-4-(3-methoxyphenyl)-6-(2-pyridyl)-4,5-dihydro-3 (2H)-pyridazinone]	100 nM
O=c1c(-c2cccnc2)cc(-c2ccccn2)nn1-c1ccccc1[N+](=O)[O-] [Example 63, 2-(2-Nitrophenyl)-4-(3-pyridyl)-6-(2-pyridyl)-3 (2H)-pyridazinone]	300 nM
O=C1N(c2cc(O)ccc2O)CC(c2ccccc2O)=NN1c1ccccc1 [Example 95, 4-(2,5-Dihydroxyphenyl)-6-(2-hydroxyphenyl)-2-phenyl-4,5-dihydro-1,2,4-triazin-3 (2H)-one]	50 nM
O=C1N(c2ccccc2)CC(c2ccccc2O)=NN1c1ccccc1Br [Example 90, 2-(2-Bromophenyl)-6-(2-hydroxyphenyl)-4-phenyl-4,5-dihydro-1,2,4-triazin-3 (2H)-one]	900 nM
O=C1C(c2ccccc2)CC(c2ccccn2)=NN1c1ccccc1[N+](=O)[O-] (stereo not drawn) [Example 27, 4-Phenyl-2-(2-nitrophenyl)-6-(2-pyridyl)-4,5-dihydro-3 (2H)-pyridazinone]	40 nM
O=C1C(c2ccc(O)cc2)CC(c2ccccn2)=NN1c1ccccc1Br (stereo not drawn) [Example 30, 2-(2-Bromophenyl)-4-(4-hydroxyphenyl)-6-(2-pyridyl)-4,5-dihydro-3 (2H)-pyridazinone]	200 nM
Cc1cccc(-n2nc(-c3ccccn3)cc(-c3cccnc3)c2=O)c1 [Example 64, 2-(3-Tolyl)-4-(3-pyridyl)-6-(2-pyridyl)-3 (2H)-pyridazinone]	700 nM
N#Cc1ccccc1-n1nc2c(c(-c3ccccc3)c1=O)COc1ccc(F)cc1-2 [Example 54, 2-(2-Cyanophenyl)-9-fluoro-4-phenyl-2,3-dihydro-5H-(1)benzopyrano[4,3-c]pyridazin-3-one]	100 nM
CSc1ccc(N2CC(c3ccccn3)=NN(c3ccccc3Br)C2=O)cc1 [Example 125, 2-(2-Bromophenyl)-4-(4-thiomethoxyphenyl)-6-(2-pyridyl)-4,5-dihydro-1,2,4-triazin-3 (2H)-one]	600 nM
O=C1N(c2ccccc2)CC(c2ncccn2)=NN1c1ccccc1 [Example 119, 2-Phenyl-4-phenyl-6-(2-pyrimidinyl)-4,5-dihydro-1,2,4-triazin-3 (2H)-one]	4300 nM
COc1ccccc1N1CC(c2ccccn2)=NN(c2ccccc2C#N)C1=O [Example 87, 2-(2-Cyanophenyl)-4-(2-methoxyphenyl)-6-(2-pyridyl)-4,5-dihydro-1,2,4-triazin-3 (2H)-one]	50 nM
O=C1N(c2ccsc2)CC(c2ccccn2)=NN1c1ccccc1Br [Example 106, 2-(2-Bromophenyl)-6-(2-pyridyl)-4-(thiophen-3-yl)-4,5-dihydro-1,2,4-triazin-3 (2H)-one]	100 nM
COc1ccccc1C1=NN(c2ccccc2)C(=O)N(c2ccccc2C#N)C1 [Example 98, 4-(2-Cyanophenyl)-6-(2-methoxyphenyl)-2-phenyl-4,5-dihydro-1,2,4-triazin-3 (2H)-one]	400 nM
N#Cc1ccccc1-n1nc2c(c(-c3ccccc3)c1=O)C(O)Oc1ccc(F)cc1-2 (stereo not drawn) [Example 53, 2-(2-Cyanophenyl)-9-fluoro-5-hydroxy-4-phenyl-2,3-dihydro-5H-(1)benzopyrano[4,3-c]pyridazin-3-one]	500 nM
O=c1c(-c2ccccc2O)cc(-c2ccccn2)nn1-c1ccccc1Br [Example 51, 2-(2-Bromophenyl)-4-(2-hydroxyphenyl)-6-(2-pyridyl)-3 (2H)-pyridazinone]	800 nM
O=c1c(-c2ccccc2OS(=O)(=O)C(F)(F)F)cc(-c2ccccn2)nn1-c1ccccc1 [Example 55, 2-Phenyl-6-(2-pyridyl)-4-(2-trifluoromethylsulfonyloxyphenyl)-3 (2H)-pyridazinone]	800 nM
